Where two headings read alike, the source gives them in different places. Non-standard residues stand in square brackets, D forms with d. Residues, ends and D or L forms follow the SMILES beside them. β3hE = N[C@@H](CCC(=O)O)CC(=O)O; β3hL = CC(C)C[C@H](N)CC(=O)O; β3hD = NC(CC(=O)O)CC(=O)O

In test [1] the target is p300/CBP. Further details: method as in ref 2 (a number printed in a supplementary file, which may have a reference list of its own: not looked up in the article's list). The conditions noted are these: ITC, 68% confidence intervals in brackets; read-out: Direct binding to p300/CBP, KD; cited from earlier work. On the technique in general: Isothermal titration calorimetry measures the heat released or taken up as one component is titrated into another.

A further test has as its system p300–HIF-1α complex. Description: NMR competition, p300 with equimolar HIF-1α and CITED2 peptide (1H–15N HSQC). The class given is binding, human. The settings on record: 13C,15N-p300_330–424, 1.2 eq of each peptide, 10 mM Tris pH 6.9, 50 mM NaCl, 1 mM DTT, 298 K. The method, then:
To investigate the reversibility of the competition, samples containing p300 with equimolar amounts of HIF-1α and CITED2_218–256 or CITED2ΔN were prepared. […] (Table S1, ESI ^†). […]
a = KHIF + KCIT + [HIF]t + [CIT]t − [P]t (16)
b = KHIFKCIT + KHIF([CIT]t − [P]t) + KCIT([HIF]t − [P]t) (17)
KHIF = dissociation constant for Flu-HIF-1α, KCIT = dissociation constant for the competitor CITED2 or variant, [CIT]t = total concentration of the competitor CITED2 or variant, [P]t = total concentration of […]
Fitted parameters were: KHIF, KCIT, [HIF]t, [P]t, rP:HIF, rHIF from which KHIF, rP:HIF, rHIF, [HIF]t were kept constant during fitting. KHIF, rP:HIF, rHIF was determined in a separate experiment using HIF-1α776-826 as a competitor
(Fig. S3) [HIF]t was determined using fluorescence intensity measurements relative to a fluorescein calibration curve. [P]t was kept as a floating parameter to account for incompetent protein fraction.
Anisotropy values were normalized and represented as ligand-bound (Lb) values (Eq. 19.) L = (r − rHIF) ∗ [HIF] (19) […]
into three samples: to the first CITED2224-256 was added, to the second CITED2218-256 was added in 1.2 equivalent relative to p300 concentration, and to the third, same volume of buffer was added, and concentrated down to final sample volume. Concentrations were determined based on UV absorbance at 280 nm for p300 and CITED2 variants and at 205 nm for HIF-1α. […]

The next test concerns the target p300-HIF-1α complex. Further details: method as in ref 2 (a number printed in a supplementary file, which may have a reference list of its own: not looked up in the article's list). The conditions noted are these: ITC titration against p300-HIF-1α complex, 68% confidence intervals in brackets; read-out: Competition with HIF-1α, KD, apparent; cited from earlier work.

Test [2] deals with CBP bound Alexa594-HIF-1α. Further details: method as in 3 sources, one per row (each row's own in cited_ref): ref 1 (a number printed in a supplementary file, which may have a reference list of its own: not looked up in the article's list) ||| ref 3 (a number printed in a supplementary file, which may have a reference list of its own: not looked up in the article's list) ||| ref 4 (a number printed in a supplementary file, which may have a reference list of its own: not looked up in the article's list). The settings on record: FA titration against CBP bound Alexa594-HIF-1α; read-out: Competition with HIF-1α, KD, apparent; cited from earlier work.

In test [3] the target is CBP bound Alexa594-CITED2. Further details: method as in 3 sources, one per row (each row's own in cited_ref): ref 1 (a number printed in a supplementary file, which may have a reference list of its own: not looked up in the article's list) ||| ref 3 (a number printed in a supplementary file, which may have a reference list of its own: not looked up in the article's list) ||| ref 4 (a number printed in a supplementary file, which may have a reference list of its own: not looked up in the article's list). The conditions noted are these: FA titration against CBP bound Alexa594-CITED2; read-out: Direct binding to p300/CBP, KD, apparent; cited from earlier work.

In test [4] the target is p300/CBP. Further details: method as in ref 1 (a number printed in a supplementary file, which may have a reference list of its own: not looked up in the article's list). The settings on record: bio-layer interferometry; read-out: Direct binding to p300/CBP, KD; cited from earlier work.
For test [5], the target named is T1, p300_330–420 (TAZ1 domain) (Homo sapiens, UniProt Q09472).
T1 construct: from residues 330-420 (used for FA and ITC experiments); GST (N, cleaved yes); made in house; host or cells: E. coli BL21 pLysS (pGEX-4T-1)
Description: ITC direct titration to p300. The class given is binding. The settings on record: 5 µM p300_330–420 in cell, 60 µM ligand in syringe, 35 °C, 40 mM Na-phosphate pH 7.5, 100 mM NaCl, 1 mM DTT, global fit with ternary intermediate model, 68% confidence intervals in brackets, read-out: Direct binding to p300, K d.

The next test addresses T2, p300–Flu-HIF-1α (Homo sapiens, UniProt Q09472).
T2 construct: from residues 330-420 (used for FA and ITC experiments); GST (N, cleaved yes); made in house; host or cells: p300: E. coli BL21 pLysS (pGEX-4T-1); tracer peptide: solid-phase synthesis
Description: Fluorescence anisotropy competition against p300–Flu-HIF-1α. The class given is binding. The conditions noted are these: 50 nM p300_330–420, 25 nM Flu-HIF-1α786–826 tracer, 40 mM Na-phosphate, 100 mM NaCl, 1 mM DTT, 0.01% Triton-X, pH 7.4, 10 min at 35 °C; fixed KD = 64 nM for tracer; three repeats; read-out: Kd,app FA competition against p300–Flu-HIF-1α.

T1 sequence (Q09472 330-420): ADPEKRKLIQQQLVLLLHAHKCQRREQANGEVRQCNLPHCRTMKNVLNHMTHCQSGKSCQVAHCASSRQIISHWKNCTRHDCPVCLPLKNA
T2 sequence (Q09472 330-420): as above

For the molecule “CITED2_224–259: CITED2 residues 224–259, longer C terminus, without N-terminal tail (DEEVLMSLVIEMGLDRIKELPELWLGQNEFDFMTDF; UniProt Q99967 224-259, looked up, fragment)”, the Kd is 9 nM on p300/CBP [1] and 12 nM at p300-HIF-1α complex. Besides, the “Species observed in sample with equimolar HIF-1α and CITED2 peptide (reversibility of competition)” value in the test with p300–HIF-1α complex is on record as “did not influence competition efficiency or unidirectionality”.

Regarding HIF-1α786-826: HIF-1α residues 786–826, the Kd on p300/CBP [1] is 43 nM.

On to “CITED2216-269: CITED2 residues 216–269, previously reported (NVIDTDFIDEEVLMSLVIEMGLDRIKELPELWLGQNEFDFMTDFVCKQQPSRVS; UniProt Q99967 216-269, looked up, fragment)”, for which the Kd at p300/CBP [1] is 26 nM; in test [2], 0.2 ± 0.1 nM; in test [3], 10 ± 1 nM; on p300/CBP [4], 9 ± 2 nM; on p300-HIF-1α complex, 1.1 nM.

In the case of “CITED2216-248: CITED2 residues 216–248, previously reported (NVIDTDFIDEEVLMSLVIEMGLDRIKELPELWL; UniProt Q99967 216-248, looked up, fragment)”, the Kd at p300/CBP [1] was 303 nM; on p300-HIF-1α complex, 47 nM.

Regarding `CC[C@H](C)[C@H](NC(C)=O)C(=O)N[C@@H](CC(=O)O)CC(=O)N[C@H](C(=O)N[C@@H](CC(=O)O)CC(=O)N[C@@H](Cc1ccccc1)C(=O)N[C@H](C(=O)N[C@@H](CC(=O)O)CC(=O)N[C@@H](CCC(=O)O)C(=O)N[C@@H](CCC(=O)O)C(=O)N[C@H](C(=O)N[C@@H](CC(C)C)C(=O)N[C@@H](CCSC)C(=O)N[C@@H](CO)C(=O)N[C@@H](CC(C)C)C(=O)N[C@H](C(=O)N[C@H](C(=O)N[C@@H](CCC(=O)O)C(=O)N[C@@H](CCSC)C(=O)NCC(=O)N[C@@H](CC(C)C)C(=O)N[C@@H](CC(=O)O)C(=O)N[C@@H](CCCNC(=N)N)C(=O)N[C@H](C(=O)N[C@@H](CCCCN)C(=O)N[C@@H](CCC(=O)O)C(=O)N[C@@H](CC(C)C)C(=O)N1CCC[C@H]1C(=O)N[C@@H](CCC(=O)O)C(=O)N[C@@H](CC(C)C)C(=O)N[C@@H](Cc1c[nH]c2ccccc12)C(=O)N[C@@H](CC(C)C)C(=O)NCC(=O)N[C@@H](CCC(N)=O)C(=O)N[C@@H](CC(N)=O)C(=O)N[C@@H](CCC(=O)O)C(=O)N[C@@H](Cc1ccccc1)C(=O)N[C@@H](CC(=O)O)C(=O)N[C@@H](Cc1ccccc1)C(=O)N[C@@H](CCSC)C(N)=O)[C@@H](C)CC)[C@@H](C)CC)C(C)C)C(C)C)[C@@H](C)CC)[C@@H](C)O` [compound 1] (Ac-I[β3hD]T[β3hD]FI[β3hD]EEVLMSLVIEMGLDRIKELPELWLGQNEFDFM-NH2), the values for the Kd (in test [5]; at p300–Flu-HIF-1α) were 19 nM and 9.6 ± 2.4 nM, respectively.

In the case of “CITED2216-246: CITED2 residues 216–246, previously reported (NVIDTDFIDEEVLMSLVIEMGLDRIKELPEL; UniProt Q99967 216-246, looked up, fragment)”, the Kd in test [2] is 210 ± 20 nM; in test [3], 5000 ± 1000 nM.

`CC[C@H](C)[C@H](NC(C)=O)C(=O)N[C@@H](CC(=O)O)C(=O)N[C@H](C(=O)N[C@@H](CC(=O)O)C(=O)N[C@@H](Cc1ccccc1)C(=O)N[C@H](C(=O)N[C@@H](CC(=O)O)C(=O)N[C@@H](CCC(=O)O)C(=O)N[C@@H](CCC(=O)O)C(=O)N[C@H](C(=O)N[C@@H](CC(C)C)C(=O)N[C@@H](CCSC)C(=O)N[C@@H](CO)C(=O)N[C@@H](CC(C)C)C(=O)N[C@H](C(=O)N[C@H](C(=O)N[C@@H](CCC(=O)O)C(=O)N[C@@H](CCSC)C(=O)NCC(=O)N[C@@H](CC(C)C)C(=O)N[C@@H](CC(=O)O)CC(=O)N[C@@H](CCCNC(=N)N)C(=O)N[C@H](C(=O)N[C@@H](CCC(=O)O)CC(=O)N[C@@H](CC(C)C)C(=O)N1CCC[C@H]1C(=O)N[C@@H](CCC(=O)O)C(=O)N[C@@H](CC(C)C)C(=O)N[C@@H](Cc1c[nH]c2ccccc12)C(=O)N[C@H](CC(=O)NCC(=O)N[C@@H](CCC(N)=O)C(=O)N[C@@H](CC(N)=O)C(=O)N[C@@H](CCC(=O)O)C(=O)N[C@@H](Cc1ccccc1)C(=O)N[C@@H](CC(=O)O)C(=O)N[C@@H](Cc1ccccc1)C(=O)N[C@@H](CCSC)C(N)=O)CC(C)C)[C@@H](C)CC)[C@@H](C)CC)C(C)C)C(C)C)[C@@H](C)CC)[C@@H](C)O` [3b] (Ac-IDTDFIDEEVLMSLVIEMGL[β3hD]RI[β3hE]LPELW[β3hL]GQNEFDFM-NH2): the Kd was 98 nM in test [5] and 112 ± 13 nM on p300–Flu-HIF-1α.
